Assay results as given in patent US9302999B2, “Substituted triazoles as herbicides” (E. I. DU PONT DE NEMOURS AND COMPANY, priority 2012, dated 2016).
Like-named read-outs stand apart in the source and are kept apart here.

Tests used:
[1] = test system: ducksalad (Heteranthera limosa); assay: Test C flooded paddy test: ducksalad; type: in vivo; conditions: scale 0 to 100 (0 no effect, 100 complete control); for pest or weed control at 62 g/ha / pest or weed control at 125 g/ha / pest or weed control at 250 g/ha / pest or weed control at 31 g/ha: Heteranthera limosa, read-out: Plant response rating, Ducksalad
How it was run: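 Visual ratings from 0 (no effect) to 100 (complete control), made against untreated controls 13 to 15 days after treatment, express plant response. Compounds went directly into paddy water over 2-leaf stage plants in pots flooded to 3 cm.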

[2] = test system: arrowleaf sida (Sida rhombifolia); assay: Test E pre-/postemergence: arrowleaf sida; type: in vivo; conditions: scale 0 to 100
Description: Seeds of plant species selected from corn (Zea mays), soybean (Glycine max), velvetleaf (Abutilon theophrasti), lambsquarters (Chenopodium album), poinsettia, wild (wild poinsettia, Euphorbia heterophylla), pigweed, palmer (palmer pigweed, Amaranthus palmeri), waterhemp (common waterhemp, Amaranthus rudis), smartweed (ladysthumb smartweed, Polygonum persicaria), surinam grass (Brachiaria decumbens), crabgrass, large (large crabgrass, Digitaria sanguinalis), crabgrass, Brazil (Brazilian crabgrass, Digitaria horizontalis), panicum, fall (fall panicum, Panicum dichotomiflorum), foxtail, giant (giant foxtail, Setaria faberii), foxtail, green (green foxtail, Setaria viridis), goosegrass (Eleusine indica), johnsongrass (Sorghum halepense), ragweed (common ragweed, Ambrosia elation), barnyardgrass (Echinochloa crus-galli), sandbur (southern sandbur, Cenchrus echinatus), arrowleaf sida (Sida rhombifolia), ryegrass, Italian (Italian ryegrass, Lolium multiflorum), dayflower, (VA) (Virginia dayflower, Commelina virginica), field bindweed (Convolvulus arvensis), cocklebur (common cocklebur, Xanthium strumarium), morningglory (Ipomoea coccinea), nightshade (eastern black nightshade, Solanum ptycanthum), kochia (Kochia scoparia), nutsedge, yellow (yellow nutsedge, Cyperus esculentus) and beggarticks (hairy beggarticks, Bidens pilosa) were planted into a silt loam soil and treated preemergence with test chemicals formulated in a non-phytotoxic solvent mixture which included a surfactant. At the same time, plants selected from these crop and weed species were planted in pots containing a growing medium comprising spaghnum peat moss, vermiculite, wetting agent and starter nutrients and treated with postemergence applications of some of the test chemicals formulated in the same manner. Plants ranged in height from 2 to 18 cm for postemergence treatments (1- to 4-leaf stage).
(§1) Treated plants and controls were maintained in a greenhouse for 14 to 21 days, after which time all species were compared to controls and visually evaluated. Plant response ratings, summarized in Table E, are based on a scale of 0 to 100 where 0 is no effect and 100 is complete control. A dash (-) response means no test result.

[3] = test system: soybean (Glycine max); assay: Test F pre-/postemergence: soybean; type: in vivo
Description: (§2) Seeds of plant species selected from corn (Zea mays), soybean (Glycine max), velvetleaf (Abutilon theophrasti), lambsquarters (Chenopodium album), poinsettia, wild (wild poinsettia, Euphorbia heterophylla), pigweed, palmer (palmer pigweed, Amaranthus palmeri), waterhemp (common waterhemp, Amaranthus rudis), surinam grass (Brachiaria decumbens), crabgrass, Brazil (Brazilian crabgrass, Digitaria horizontalis), panicum, fall (fall panicum Panicum dichotomiflorum), crabgrass, large (large crabgrass, Digitaria sanguinalis), foxtail, giant (giant foxtail, Setaria faberii), foxtail, green (green foxtail Setaria viridis), goosegrass (Eleusine indica), ragweed (common ragweed, Ambrosia elatior), barnyardgrass (Echinochloa crus-galli), sandbur (southern sandbur, Cenchrus echinatus), arrowleaf sida (Sida rhombifolia), ryegrass, Italian (Italian ryegrass, Lolium multiflorum), dayflower, VA (Virginia (VA) dayflower, Commelina virginica), field bindweed (Convolvulus arvensis), cocklebur (common cocklebur, Xanthium strumarium), morningglory (Ipomoea coccinea), nightshade (eastern black nightshade, Solanum ptycanthum), kochia (Kochia scoparia), nutsedge, yellow (yellow nutsedge, Cyperus esculentus), johnsongrass (Sorghum halepense), smartweed (ladysthumb smartweed, Polygonum persicaria), and beggarticks (hairy beggarticks, Bidens pilosa), were planted into a silt loam soil and treated preemergence with test chemicals formulated in a non-phytotoxic solvent mixture which included a surfactant. At the same time, plants selected from these crop and weed species and also pigweed (Amaranthus retroflexus), waterhemp_RES1 (ALS/Triazine resistant common waterhemp, Amaranthus rudis) and waterhemp_RES2 (ALS/HPPD resistant common waterhemp, Amaranthus rudis) were planted in pots containing a planting medium comprising spaghnum peat moss, vermiculite, wetting agent and starter nutrients treated with postemergence applications of some of the test chemicals formulated in the same manner. Plants ranged in height from 2 to 18 cm for postemergence treatments (1- to 4-leaf stage).
as §1

[4] = test system: cocklebur (common cocklebur, Xanthium strumarium); assay: Test F pre-/postemergence: cocklebur; type: in vivo; conditions: Preemergence
Description: as §2, §1

[5] = test system: poinsettia, wild (wild poinsettia, Euphorbia heterophylla); assay: Test F pre-/postemergence: poinsettia, wild; type: in vivo; conditions: Preemergence
Description: as §2, §1

[6] = test system: Barnyardgrass; assay: Test C preemergence: barnyardgrass; type: in vivo, Echinochloa crus-galli
Description: Seeds of plant species selected from blackgrass (Alopecurus myosuroides), bromegrass, downy (downy bromegrass, Bromus tectorum), foxtail, green (green foxtail, Setaria viridis), ryegrass, Italian (Italian ryegrass, Lolium multiflorum), winter wheat (Triticum aestivum), wild oat (Avena fatua), galium (catchweed bedstraw, Galium aparine), bermudagrass (Cynodon dactylon), surinam grass (Brachiaria decumbens), cocklebur (common cocklebur, Xanthium strumarium), corn (Zea mays), large crabgrass (Digitaria sanguinalis), woolly cupgrass (Eriochloa villosa), foxtail, giant (giant foxtail, Setaria faberii), goosegrass (Eleusine indica), johnsongrass (Sorghum halepense), kochia (Kochia scoparia), lambsquarters (Chenopodium album), morningglory (Ipomoea coccinea), nightshade (eastern black nightshade, Solanum ptycanthum), nutsedge, yellow (yellow nutsedge, Cyperus esculentus), pigweed (Amaranthus retroflexus), ragweed (common ragweed, Ambrosia elation), soybean (Glycine max), common (oilseed) sunflower (Helianthus annuus), Russian thistle (Salsola kali) and velvetleaf (Abutilon theophrasti) were planted into a blend of loam soil and sand and treated preemergence with test chemicals formulated in a non-phytotoxic solvent mixture which included a surfactant.
as §1, with “13” for “14”, “15” for “21”, “C,” for “E,”

[7] = Flood (flooded paddy test), 62 g ai/ha, visual rating after 13 to 15 days
[8] = Flood (flooded paddy test), 125 g ai/ha, visual rating after 13 to 15 days
[9] = Flood (flooded paddy test), 250 g ai/ha, visual rating after 13 to 15 days
[10] = 16 g ai/ha, scale 0 to 100 (0 no effect, 100 complete control)
[11] = 31 g ai/ha, scale 0 to 100 (0 no effect, 100 complete control)
[12] = 31 g ai/ha, scale 0 (no effect) to 100 (complete control)
[13] = 62 g ai/ha, scale of 0 to 100, 0 is no effect, 100 is complete control
[14] = 125 g ai/ha, scale 0 to 100, 0 no effect, 100 complete control

## Cc1nn(-c2ccc(F)cc2)nc1Cc1ccnc(C(F)(F)F)c1 [Compound 16, 4-[[2-(4-fluorophenyl)-5-methyl-2H-1,2,3-triazol-4-yl]methyl]-2-(trifluoromethyl)pyridine]
[1]; [7]
  pest or weed control at 62 g/ha: 85%
[1]; [8]
  pest or weed control at 125 g/ha: 95%
[1]; [9]
  pest or weed control at 250 g/ha: 100%
[1]; Flood, 31 g ai/ha
  pest or weed control at 31 g/ha: 70%
[2]; Preemergence, 8 g ai/ha
  Plant response rating: Arrowleaf Sida: 0
[2]; Preemergence, 16 g ai/ha
  Plant response rating: Arrowleaf Sida: 0
[2]; Preemergence, 31 g ai/ha
  Plant response rating: Arrowleaf Sida: 0
[2]; Preemergence, 62 g ai/ha
  Plant response rating: Arrowleaf Sida: 0
[2]; Preemergence, 125 g ai/ha
  Plant response rating: Arrowleaf Sida: 35

## COc1nn(-c2ccc(C(F)(F)F)cc2)nc1Cn1ccc(C(F)(F)F)n1 [Compound 17, 4-methoxy-2-[4-(trifluoromethyl)phenyl]-5-[[3-(trifluoromethyl)-1H-pyrazol-1-yl]methyl]-2H-1,2,3-triazole]
[1]; [7]
  pest or weed control at 62 g/ha: 0%
[1]; [8]
  pest or weed control at 125 g/ha: 0%
[1]; [9]
  pest or weed control at 250 g/ha: 20%
[1]; Flood, 31 g ai/ha
  pest or weed control at 31 g/ha: 0%

## Cc1nn(-c2ccc(C(F)(F)F)cc2)nc1Cc1ccnc(C(F)(F)F)c1 [Compound 47, 4-[[5-methyl-2-[4-(trifluoromethyl)phenyl]-2H-1,2,3-triazol-4-yl]methyl]-2-(trifluoromethyl)pyridine]
[1]; [7]
  pest or weed control at 62 g/ha: 90%
[1]; [8]
  pest or weed control at 125 g/ha: 90%
[1]; [9]
  pest or weed control at 250 g/ha: 90%
[1]; Flood, 31 g ai/ha
  pest or weed control at 31 g/ha: 0%
[2]; Postemergence, 250 g ai/ha
  Plant response rating: Arrowleaf Sida: 85
[2]; Postemergence, 16 g ai/ha
  Plant response rating: Arrowleaf Sida: 50
[2]; Postemergence, 31 g ai/ha
  Plant response rating: Arrowleaf Sida: 60
[2]; Postemergence, 62 g ai/ha
  Plant response rating: Arrowleaf Sida: 70
[2]; Postemergence, 125 g ai/ha
  Plant response rating: Arrowleaf Sida: 80
[2]; Preemergence, 16 g ai/ha
  Plant response rating: Arrowleaf Sida: 0
[2]; Preemergence, 31 g ai/ha
  Plant response rating: Arrowleaf Sida: 20
[2]; Preemergence, 62 g ai/ha
  Plant response rating: Arrowleaf Sida: 40
[2]; Preemergence, 125 g ai/ha
  Plant response rating: Arrowleaf Sida: 60
[2]; Preemergence, 250 g ai/ha
  Plant response rating: Arrowleaf Sida: 95

## Cc1nn(-c2ccc(C(F)(F)F)cc2)nc1Cc1cccc(C(F)(F)F)c1 [Compound 124]
[1]; [8]
  Plant response rating, Ducksalad: 90
[1]; [9]
  Plant response rating, Ducksalad: 90
[1]; Flood, 31 g ai/ha
  Plant response rating, Ducksalad: 20
[1]; Flood, 62 g ai/ha
  Plant response rating, Ducksalad: 90

## CCc1nn(-c2ccc(C(F)(F)F)cc2)nc1Oc1cccc(OC(F)(F)F)c1 [Compound 125, 4-ethyl-5-[3-(trifluoromethoxy)phenoxy]-2-[4-(trifluoromethyl)phenyl]-2H-1,2,3-triazole]
[1]; [8]
  pest or weed control at 125 g/ha: 75%
[1]; [9]
  pest or weed control at 250 g/ha: 90%
[1]; Flood, 31 g ai/ha
  pest or weed control at 31 g/ha: 0%
[1]; Flood, 62 g ai/ha
  pest or weed control at 62 g/ha: 0%

## Cc1nn(-c2ccc(F)cc2)nc1Oc1ccnc(C(F)(F)F)c1 [Compound 129, 4-[[2-(4-fluorophenyl)-5-methyl-2H-1,2,3-triazol-4-yl]oxy]-2-(trifluoromethyl)pyridine]
[1]; [8]
  pest or weed control at 125 g/ha: 80%
[1]; [9]
  pest or weed control at 250 g/ha: 90%
[1]; Flood, 31 g ai/ha
  pest or weed control at 31 g/ha: 70%
[1]; Flood, 62 g ai/ha
  pest or weed control at 62 g/ha: 75%
[2]; Preemergence, 8 g ai/ha
  Plant response rating: Arrowleaf Sida: 0
[2]; Preemergence, 16 g ai/ha
  Plant response rating: Arrowleaf Sida: 0
[2]; Preemergence, 31 g ai/ha
  Plant response rating: Arrowleaf Sida: 0
[2]; Preemergence, 62 g ai/ha
  Plant response rating: Arrowleaf Sida: 30
[2]; Preemergence, 125 g ai/ha
  Plant response rating: Arrowleaf Sida: 30

## Fc1ccc(-n2nc(Cc3ccnc(C(F)(F)F)c3)c(OCC(F)(F)F)n2)cc1 [Compound 142]
[3]; Preemergence, 16 g ai/ha, scale 0 to 100 (0 no effect, 100 complete control)
  Plant response rating, Soybean: 0
[3]; Preemergence, 31 g ai/ha, scale 0 to 100 (0 no effect, 100 complete control)
  Plant response rating, Soybean: 0
[3]; Preemergence, 125 g ai/ha, scale 0 to 100
  Plant response rating, Soybean: 25
[4]; [10]
  Plant response rating, Cocklebur: 0
[4]; [11]
  Plant response rating, Cocklebur: 0
[4]; 62 g ai/ha, scale 0 to 100
  Plant response rating, Cocklebur: 0
[5]; [10]
  Plant response rating, Poinsettia, Wild: 0
[5]; [11]
  Plant response rating, Poinsettia, Wild: 10
[5]; 125 g ai/ha, scale 0 to 100
  Plant response rating, Poinsettia, Wild: 70

## Cc1nn(-c2ccc(F)c(F)c2)nc1Oc1ccnc(C(F)(F)F)c1 [Compound 145]
[3]; Postemergence, 8 g ai/ha, scale 0 to 100
  Plant response rating, Soybean: 25
[3]; Postemergence, 16 g ai/ha, scale 0 to 100
  Plant response rating, Soybean: 35
[3]; Postemergence, 31 g ai/ha, scale 0 to 100
  Plant response rating, Soybean: 40
[3]; Postemergence, 62 g ai/ha, scale 0 to 100
  Plant response rating, Soybean: 50
[3]; Postemergence, 125 g ai/ha, scale 0 to 100
  Plant response rating, Soybean: 60

## CCc1nn(-c2ccc(F)cc2)nc1Oc1ccnc(C(F)(F)F)c1 [Compound 166]
[6]; [12]
  Plant response rating, Barnyardgrass: 5
[6]; [13]
  Plant response rating, Barnyardgrass: 75
[6]; [14]
  Plant response rating, Barnyardgrass: 98

## CCCc1nn(-c2ccc(C(F)(F)F)c(F)c2)nc1Oc1ccnc(C(F)(F)F)c1 [Compound 185]
[6]; [12]
  Plant response rating, Barnyardgrass: 55
[6]; [13]
  Plant response rating, Barnyardgrass: 98
[6]; [14]
  Plant response rating, Barnyardgrass: 100

## CCOc1nn(-c2ccc(Br)cc2)nc1Cc1ccnc(C(F)(F)F)c1 [Compound 189]
[6]; 16 g ai/ha, scale 0 (no effect) to 100 (complete control)
  Plant response rating, Barnyardgrass: 25
[6]; [12]
  Plant response rating, Barnyardgrass: 45
[6]; [13]
  Plant response rating, Barnyardgrass: 98
[6]; [14]
  Plant response rating, Barnyardgrass: 100
